row,SMILES,melting point [°C]
1,O=C1NN=C(c2ccc(NC(=O)C(F)(F)F)cc2)C2CC12 (centres undefined),242 to 243
2,COC1CC(OC)(OC)C(=O)N1 (centres undefined),86
3,CCOCc1nc2c(N)nc(C)c(C)c2n1CCN,163 to 166
4,COC(=O)c1ccc(CN(Cc2cc(Br)ccc2OCc2ccccc2)c2ccc(C(=O)OC(C)(C)C)cc2)cc1,154 to 155
5,Cc1ccc2c(=O)cc[nH]c2c1[N+](=O)[O-],> 250
6,CCOC(=O)c1nc(NC)sc1C(=O)C(C)Br (centres undefined),104 to 106
7,Cc1cc2c(c(C)c1O)C(C)CN2C(=O)C(C)(C)C (centres undefined),144 to 145
8,CC(C)(C)OC(=O)N1CCC(C#N)(c2cccc(C(F)(F)F)c2)CC1,72 to 73
9,O=C(Nc1ccc(Cl)nc1)N1CC2(c3ccc(Cl)cc3)COc3cc(Cl)ccc3C2=N1 (centres undefined),> 250
10,OCCCc1ccc(OCCN2CCOCC2)cc1Oc1ncc(C(F)(F)F)cc1Cl,69.2 to 70.4
11,CCCc1c(OCCCOc2ccc(C(=O)C(=O)OCC)cc2)ccc(C(=O)OC)c1O,62 to 64
12,CC(C)NC(=O)c1c(I)cccc1C(=O)Nc1ccc(OCC(F)(F)F)nc1,220 to 225
13,CCn1c(COC(N)=O)nc(C(C)C)c1Sc1cc(C#N)cc(C#N)c1,174 to 175
14,O=C(Oc1ccc([N+](=O)[O-])cc1)C(=O)N1CCOC1=O,159
15,CCOC(=O)COc1cc(OCC=C(C)C)ccc1C(=O)C=Cc1ccc(C(C)(C)C)cc1,78 to 79
16,CC(C)(C)OC(=O)Nc1ccc(C#Cc2ccc(F)cc2)cc1N,180
17,O=C(O)C1Oc2cc(Cl)c(S(=O)(=O)c3cccc(Cl)c3)cc2O1 (centres undefined),151 to 153
18,COc1cc(-c2c(Cl)c(CNC(C)(C)C)nc3sc4c(c23)CCNC4)ccc1OC(C)C,157 to 158
19,COC(=O)c1ccc(-c2nc(COc3ccc(C=O)cc3OC)c(C)o2)cc1,185 to 186

row,SMILES,melting point [°C]
1,COc1cc(-c2ccc3n[nH]c(=O)n3n2)cc(OC)c1OC,289 to 290
2,Cc1cc(-n2ccnc2)c2cccc(OCc3c(Cl)ccc(S(=O)(=O)N4CCC[C@H]4C(=O)NCC4CCN(C(=O)c5cccnc5)CC4)c3Cl)c2n1,109
3,O=C(O)CCCC=Cc1nn(-c2ccc(Cl)cc2)c2c1CCC2,132 to 134
4,CCCc1c(OCCCOc2ccc3c(c2CCC)OC(C)(CCC(=O)OC)CC3=O)ccc(C(C)=O)c1O (centres undefined),73 to 74.5
5,CCOC(=O)CS(=O)(=O)CCCC=C1SC=CS1,79.5 to 81
6,CCC(=S)c1ccc(C)cc1,55 to 56
7,CCOC(=O)C(CC#N)(C(=O)OCC)c1ccc([N+](=O)[O-])cn1,66 to 68
8,C#CC1(O)CCC2C3CCC4=CC(=O)CCC4C3CCC21CCC (centres undefined),149 to 150
9,CC(=O)OCCSc1nc(C(C)(C)C)nn1C(=O)N(C)C,110 to 112
10,CC(C)c1cccc(S(=O)(=O)n2c(Cc3ccc(C(=O)O)cc3)cc3cc(Cl)ccc32)c1,181
11,Cc1cc(-c2c[nH]cn2)ccc1N=CNC#N,200 to 202
12,Fc1ccc(-c2cn([C@H]3CN4CCC3CC4)nn2)cc1,139
13,Cc1ccc(C(C=O)=CN(C)C)c([N+](=O)[O-])c1,117 to 119
14,O=C(O)Cc1nc(-c2ccc(Cl)c(Cl)c2)oc1-c1ccoc1,222 to 223
15,OCCSCc1ccc(-c2ccc(CSCCO)cc2)cc1,152
16,OCCNc1nc(Cl)nc2c1ncn2C1CC(O)C(CO)O1 (centres undefined),167 to 168
17,CCCc1[nH]cnc1C=O,120 to 124
18,C[Si](C)(C)CCOCn1c(-c2cnn(-c3c(Cl)cc(C(F)(F)F)cc3Cl)n2)nc([N+](=O)[O-])c1Br,126 to 128
19,CC(=O)OCC(=O)C12OCOC1CC1C3CCC4=CC(=O)C=CC4(C)C3(Cl)C(O)CC12C (centres undefined),244 to 245

row,SMILES,melting point [°C]
1,NS(=O)(=O)c1ccc(NC(=O)NCCCCCCNC(=O)n2cc(F)c(=O)[nH]c2=O)cc1,181 to 184
2,CC(C)(C)OC(=O)NCCCCNc1c([N+](=O)[O-])cnc2cccnc12,137 to 138
3,COC(=O)c1c(C)nc(C)c(C(=O)OCC2CCCO2)c1-c1cccc(O)c1 (centres undefined),95 to 97
4,CCc1nn(CC#N)c(CC)c1Oc1cc(Cl)cc(Cl)c1,70 to 72
5,CCOC(=O)c1cnoc1-c1ccc(F)c(F)c1,64 to 65
6,Cc1cc2c(cc1C1=NNC(=O)CC1)N(C)C(=O)C(C)O2 (centres undefined),210 to 212
7,CCO/C(=C\c1ccsc1)C(=O)O,88 to 89
8,Nc1ccc(Oc2ccc(C3(c4ccc(Oc5ccc(N)cc5)cc4)CCC(c4ccccc4)CC3)cc2)cc1,90.7 to 92.2
9,CC(=O)Nc1cc(C)c([N+](=O)[O-])cn1,153 to 154
10,N#CSCC(Cl)=C(Cl)CCl,60 to 63
11,CCn1c(=O)c(-c2c(Cl)cccc2Cl)cc2cnc(NCCCN3CCN(C)CC3)nc21,126 to 128
12,COCCNC(=O)c1cccc(-c2cccc3cc(C(O)c4cccc(C(F)(F)F)c4)sc23)c1 (centres undefined),126 to 127
13,Cn1c(=S)n(C)c(=O)n(-c2ccc(F)cc2F)c1=O,156 to 159
14,COC(=O)C1=C(C)NC(C)=C(P(=O)(OC)OC)C1c1cccc([N+](=O)[O-])c1 (centres undefined),221 to 223
15,CC(C)(C)OC(=O)CC(O)c1ccc(Cl)nc1NC(=O)C(C)(C)C (centres undefined),130 to 132
16,NC1=CN(N)NN=C1c1cccc(Cl)c1Cl,216 to 218
17,OCCC#CC1CCC(COc2ccc(F)cc2)O1 (mixture of isomers),76
18,CCNC(=NC#N)NCC(=O)N(C)c1ccc(Cl)c(COc2cccn3c(Br)c(C)nc23)c1Cl,> 250

# Other lines, results leading:
row,melting point [°C],SMILES
1,141 to 143,O=C(c1ccccc1)N(c1ccccc1)c1ccc(OCc2ccccc2)cc1
2,170 to 171,CN(C)c1ccc(CNc2ncnc3c2ncn3C2OC(CO)C(O)C2O)cc1 (centres undefined)
3,180 to 181,Nc1nc(Nc2ccccc2)nc(-c2cc(Cl)ccc2Cl)n1
4,143 to 145,COc1cc(C(C)C)ccc1C1(Br)C(=O)c2cccc(NC(C)=O)c2C1=O (centres undefined)
5,> 220,CN1CCN(c2ccc3[nH]c(=O)c(-c4csc(-c5ccncc5)n4)c(N)c3c2)CC1
6,174 to 176,CC1C(N(C)C)CCN2c3ccccc3Cc3ccccc3C12 (centres undefined)
7,218 to 221,CCOCc1nc2c(N)nc3ccc(O)cc3c2n1CCCCNC(=O)Nc1ccccc1
8,118 to 119,c1ccc(SC2CCN(C(c3ccccc3)c3ccccc3)CC2)cc1
9,146 to 148,CC(C)Oc1cc(CCCOc2cc(CCC(=O)O)n(-c3ccccc3)n2)n(Cc2ccc(Cl)cc2Cl)n1
10,263 to 265,Nc1ncc(CN2CCN(c3ccccc3)CC2)c(N)n1
11,89 to 91,O=C(CBr)c1cccn1S(=O)(=O)c1ccccc1
12,94 to 95,CCOC(=O)CC1=NCC(c2cccc(OCc3ccc4ccccc4n3)c2)O1 (centres undefined)
13,135 to 137,CC(=O)C(C(=O)Nc1ccccc1)C(C)C (centres undefined)
14,134 to 135,COc1ccc(-c2ccc(C(=O)O)c(OC)c2)cc1OC
15,151 to 154,O=C(Cc1cccc(O)c1)c1cccc(O)c1
16,211 to 212,COC(=O)NC1=NC(c2ccc(F)cc2)CCN1 (centres undefined)
17,175 to 178,N=C(N)Nc1nc(CSCCNC(=O)c2cccc(NS(=O)(=O)c3ccccc3)c2)cs1
18,217 to 220,COC(=O)c1ccc2cc(-c3cc4c(c(C56CC7CC(CC(C7)C5)C6)c3)OCO4)ccc2c1
19,183 to 185,OCc1ccc2c(c1)ncn2-c1cccc(-c2cccnc2)c1
20,168 to 170,CC1(C)CN2C(=O)c3ccccc3C(O)(c3ccc(F)cc3)C2=N1 (centres undefined)
21,110 to 111,OC1=C(c2ccccc2)CC(O)(Cl)C=C1 (centres undefined)
22,123 to 125,OC1(C(c2ccccc2)c2ccccc2)CSC2=NCCCCN21 (centres undefined)

row,melting point [°C],SMILES
1,82 to 84,CCC(O)(c1ccc(-c2ccccc2)cc1)C1CC=CC1 (centres undefined)
2,65 to 67,CC(C)(C)OC(=O)NCC(O)(CNCC(O)C(Cc1ccccc1)NC(=O)OC(C)(C)C)Cc1ccccc1 (centres undefined)
3,154 to 155,CCOC(=O)C=C1CN(C)C(=O)c2ccccc2N1
4,42,CCOC(=O)C1=COc2ccccc2O1
5,233 to 235,Cc1nc(N2CCN(Cc3ccncc3)C2=O)sc1C(=O)NCc1cccnc1
6,141 to 144,CCc1nc2c(C)cc(C)nc2n1Cc1ccc(C(=C(c2nnn[nH]2)S(C)=O)c2ccccc2)cc1 (centres undefined)
7,74 to 76,CCN(CC)CCN(c1ccc(C(=O)c2ccccc2)cc1)S(C)(=O)=O
8,237 to 240,CN(C)/C=C/C(=O)c1ccc2n1Cc1ccccc1N(C(=O)c1ccc(C3CCCCC3)cc1)C2
9,84 to 85,COc1ccc(C(=O)c2c(Cc3ccccc3)oc3ccccc23)cc1
10,147,COC(=O)CN=C(Cc1ccccc1)N1CC2C(=O)CCC(c3ccccc3)(c3ccccc3)C2C1 (centres undefined)
11,198,O=C1NC(=O)C(Cc2ccc(OCCn3nc(-c4ccccc4)c4ccccc4c3=O)cc2)S1 (centres undefined)
12,98 to 100,COc1ccc(CSC2=NC(c3cccc(Cl)c3Cl)C(C(=O)OC(C)C)=C(C)N2)cc1 (centres undefined)
13,160,COc1ccc(CN(C)CCCOc2ccc(NC(=O)c3cccc4c(=O)c5cccc(C)c5[nH]c34)cc2)cc1OC
14,337 to 338,Nc1c(-c2ccccc2)c(=O)[nH]c2cc(Cl)ccc12
15,118 to 124,COc1ccccc1C(C)C(Sc1ccc(C(=O)O)cc1)n1ccnc1 (centres undefined)
16,159,Cc1cccc(Nn2cnc(C)c2-c2ccccc2)c1
17,183 to 184,CS(=O)(=O)c1ccc(-c2cnc(-c3ccc(F)cc3)s2)s1
18,193 to 194,Cn1cc(-c2c(-c3ccccc3F)nn3ccncc23)ccc1=O
19,> 230,CSc1nn2c(O)cc(O)nc2c1S(=O)(=O)c1ccccc1
20,181 to 182,Cc1c(NC(=O)c2ccc(-c3ccc4c(c3)CCO4)cc2F)ccc2cc(CN3CCCC3)cnc12
21,247 to 248,Cc1nc2c3c(c(C(=O)NC4CC4)cc2n1C)CCC1(Cc2ccccc2C1)N3

# From a melting point compilation (Tetko et al.; mined from patent text by program, amines drawn as free bases though some values may be those of a salt)
